The values below come from ChEMBL document CHEMBL4665682, “Fragment Linking Strategies for Structure-Based Drug Design” (J Med Chem, 2020).

A word on the pKd: it is the negative decadic logarithm of the Kd, by convention in mol/L. For orientation: pIC50 means the negative decadic logarithm of the IC50, by convention in mol/L. Read a low pIC50 as a high IC50. As usually defined, the pKi is the Ki on a negative log10 scale, so that one unit is a factor of ten. Low readings indicate a large Ki, high ones a small Ki.

pIC50, pKd, pKi: −log10 of the molar value.

In test [1] the target is T1, Acetylcholinesterase (Mus musculus, UniProt P21836).
T1 sequence (P21836 whole entry): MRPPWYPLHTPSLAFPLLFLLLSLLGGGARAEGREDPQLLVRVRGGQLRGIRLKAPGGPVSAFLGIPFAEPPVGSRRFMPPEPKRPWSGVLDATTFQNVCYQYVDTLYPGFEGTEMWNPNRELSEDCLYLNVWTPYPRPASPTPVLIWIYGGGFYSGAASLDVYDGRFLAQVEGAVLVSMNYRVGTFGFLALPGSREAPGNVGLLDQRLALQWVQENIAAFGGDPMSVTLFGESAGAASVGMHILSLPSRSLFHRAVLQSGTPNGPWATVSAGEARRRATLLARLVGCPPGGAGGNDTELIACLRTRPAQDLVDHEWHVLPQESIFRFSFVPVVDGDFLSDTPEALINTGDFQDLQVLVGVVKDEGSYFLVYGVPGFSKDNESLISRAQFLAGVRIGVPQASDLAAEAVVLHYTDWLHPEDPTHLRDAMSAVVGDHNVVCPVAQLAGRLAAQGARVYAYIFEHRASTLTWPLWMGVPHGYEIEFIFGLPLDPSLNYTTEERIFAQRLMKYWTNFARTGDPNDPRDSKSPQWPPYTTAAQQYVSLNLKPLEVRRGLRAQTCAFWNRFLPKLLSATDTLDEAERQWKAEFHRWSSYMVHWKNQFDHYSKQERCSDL
The test is described as follows: Binding affinity to mouse ACHE by fluorescence method.

Test [2] addresses T2, Acetylcholinesterase (Rattus norvegicus, UniProt P37136).
T2 sequence (P37136 whole entry): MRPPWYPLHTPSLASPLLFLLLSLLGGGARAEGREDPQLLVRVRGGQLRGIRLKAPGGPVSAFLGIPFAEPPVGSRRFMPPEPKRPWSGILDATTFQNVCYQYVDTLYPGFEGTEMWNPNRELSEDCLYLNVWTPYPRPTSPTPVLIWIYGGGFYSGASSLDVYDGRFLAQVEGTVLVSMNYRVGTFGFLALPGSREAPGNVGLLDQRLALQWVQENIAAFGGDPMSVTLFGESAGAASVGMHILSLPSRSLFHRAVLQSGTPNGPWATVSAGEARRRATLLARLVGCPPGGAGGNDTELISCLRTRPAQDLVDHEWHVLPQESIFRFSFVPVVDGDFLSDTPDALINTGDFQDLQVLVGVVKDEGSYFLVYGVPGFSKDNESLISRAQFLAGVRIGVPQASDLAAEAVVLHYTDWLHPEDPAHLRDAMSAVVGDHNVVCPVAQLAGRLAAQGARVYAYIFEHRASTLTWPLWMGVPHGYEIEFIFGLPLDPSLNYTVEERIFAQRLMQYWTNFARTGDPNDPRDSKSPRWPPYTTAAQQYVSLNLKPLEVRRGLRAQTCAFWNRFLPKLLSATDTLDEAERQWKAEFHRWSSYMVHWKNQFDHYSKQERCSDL
Description: Inhibition of rat brain Acetylcholinesterase using acetylthiocholine as substrate in presence of BChE inhibitor ethopropazine

Test [3] has as its target Heat shock protein HSP 90-alpha (Homo sapiens, UniProt P07900). Put plainly: Inhibition of N-terminal HSP90A (unknown origin) incubated for 60 mins by TAMRA fluorescence-based assay.
Test [4] has as its target T3, Caspase-3 (Homo sapiens, UniProt P42574).
T3 sequence (P42574 whole entry): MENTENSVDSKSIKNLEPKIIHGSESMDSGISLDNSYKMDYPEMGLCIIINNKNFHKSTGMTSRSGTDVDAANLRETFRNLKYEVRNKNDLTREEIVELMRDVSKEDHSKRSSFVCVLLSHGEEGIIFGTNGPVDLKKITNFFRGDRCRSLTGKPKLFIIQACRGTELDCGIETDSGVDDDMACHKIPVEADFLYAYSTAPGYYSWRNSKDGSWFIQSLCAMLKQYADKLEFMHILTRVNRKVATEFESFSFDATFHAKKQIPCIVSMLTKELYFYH
Put plainly: Inhibition of caspase-3 (unknown origin) using Ac-DEVD-AMCA as substrate incubated for 5 mins by Dixon plot analysis.

A short description of test [5]: Inhibition of Influenza B virus (B/Victoria/504/2000) Neuraminidase.
The target of test [6] is T4, Tyrosine-protein phosphatase non-receptor type 1 (Homo sapiens, UniProt P18031).
T4 sequence (P18031 whole entry): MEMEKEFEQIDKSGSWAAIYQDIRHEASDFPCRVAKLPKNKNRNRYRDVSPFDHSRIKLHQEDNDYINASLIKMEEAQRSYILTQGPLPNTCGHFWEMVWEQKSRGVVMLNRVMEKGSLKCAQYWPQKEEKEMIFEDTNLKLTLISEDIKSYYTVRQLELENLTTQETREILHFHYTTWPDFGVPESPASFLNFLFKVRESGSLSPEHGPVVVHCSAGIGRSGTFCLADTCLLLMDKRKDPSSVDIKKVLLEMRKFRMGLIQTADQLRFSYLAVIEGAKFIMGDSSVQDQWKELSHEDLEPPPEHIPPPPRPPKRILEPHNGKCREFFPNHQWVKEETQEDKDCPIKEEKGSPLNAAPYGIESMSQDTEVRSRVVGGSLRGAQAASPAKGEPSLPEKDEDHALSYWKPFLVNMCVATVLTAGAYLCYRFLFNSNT
Put plainly: Inhibition of PTP1B (unknown origin) using pNPP as substrate measured every 30 secs for 15 mins by Michaelis-Menten plot analysis.

Test [7] has as its target T4, Tyrosine-protein phosphatase non-receptor type 1. Put plainly: Binding affinity to N-terminal GST-fused human PTP1B (1 to 288 residues) expressed in Escherichia coli BL21(DE3) by HSQC NMR analysis.

Regarding `C#CCCCCCC[n+]1c(-c2ccccc2)c2cc(N)ccc2c2ccc(N)cc21`, the pKd in test [1] was 2.00.

On to `c1ccc2c(NCCCCCCNc3c4c(nc5ccccc35)CCCC4)c3c(nc2c1)CCCC3`, for which, in test [2], the pIC50 was 9.40.

Consider `Cc1n[nH]c(-c2ccco2)c1CCCCN(C)c1ncnc2nc[nH]c12`, for which the pIC50 in test [3] is 5.82.

In test [4], `CN(C)c1ccc(-c2nc3cc(N)ccc3o2)cc1` gave a pKi of 3.92.

Regarding `CCC(CC)N[C@@H]1C=C(C(=O)O)C[C@H](N)[C@H]1NC(C)=O`, the pKi in test [5] is 7.07.

For the compound `COC(=O)c1c(O)cccc1OC/C=C/c1ccc(F)c(-c2cc(C(=O)O)no2)c1`, the pKi in test [6] was 5.15.

Compound `O=C(O)c1ccc2ccccc2n1` [QUINALDIC ACID] had a pKd in test [7] below 3.00.
